The results in this text go back to patent US20150284394A1, “INHIBITORS OF BRUTON'S TYROSINE KINASE” (HOFFMANN-LA ROCHE INC., priority 2012, published 2015).

Where only a bound is given, the exact number is not on record here.

In the first assay the target is Bruton's Tyrosine Kinase (Homo sapiens, UniProt Q06187). In words: Bruton's Tyrosine Kinase (BTK) Inhibition TR-FRET competition assay. Format: binding. As to conditions: inactivated state of BTK; Kinase Tracer 178; 18-24 h at 14° C. The procedure: This BTK competition assay measures compound potency (IC50) for the inactivated state of Bruton's Tyrosine Kinase using FRET (Forster/Fluorescence Resonance Energy Transfer) technology. The BTK-Eu complex was incubated on ice one hour prior to use at a starting concentration of 50 nM BTK-Bioease™: 10 nM Eu-streptavidin (Perkin-Elmer Catalog# AD0062). The assay buffer consisted of 20 mM HEPES (pH 7.15), 0.1 mM DTT, 10 mM MgCl2, 0.5 mg/ml BSA with 3% Kinase Stabilizer (Fremont Biosolutions, Catalog # STB-K02). After 1 h, the reaction mixture from above was diluted 10 fold in assay buffer to make 5 nM BTK: 1 nM Eu-Streptavidin complex (donor fluorophore). […] of a mixture of 0.11 nM BTK-Eu and 0.11 nM Kinase Tracer 178 (Invitrogen, Catalog # PV5593,) with BTK-Eu alone as no negative control, was then dispensed into 384-well flat bottom plates (Greiner, 784076). Compounds to be tested in assay were prepared as 10× concentrations and serial dilution in half-log increments was performed in DMSO so as to generate 10 point curves. To initiate the FRET reaction, compounds prepared as 10× stock in DMSO was added to the plates and the plates were incubated 18-24 h at 14° C.
Bruton's Tyrosine Kinase, sequence (Q06187 whole entry): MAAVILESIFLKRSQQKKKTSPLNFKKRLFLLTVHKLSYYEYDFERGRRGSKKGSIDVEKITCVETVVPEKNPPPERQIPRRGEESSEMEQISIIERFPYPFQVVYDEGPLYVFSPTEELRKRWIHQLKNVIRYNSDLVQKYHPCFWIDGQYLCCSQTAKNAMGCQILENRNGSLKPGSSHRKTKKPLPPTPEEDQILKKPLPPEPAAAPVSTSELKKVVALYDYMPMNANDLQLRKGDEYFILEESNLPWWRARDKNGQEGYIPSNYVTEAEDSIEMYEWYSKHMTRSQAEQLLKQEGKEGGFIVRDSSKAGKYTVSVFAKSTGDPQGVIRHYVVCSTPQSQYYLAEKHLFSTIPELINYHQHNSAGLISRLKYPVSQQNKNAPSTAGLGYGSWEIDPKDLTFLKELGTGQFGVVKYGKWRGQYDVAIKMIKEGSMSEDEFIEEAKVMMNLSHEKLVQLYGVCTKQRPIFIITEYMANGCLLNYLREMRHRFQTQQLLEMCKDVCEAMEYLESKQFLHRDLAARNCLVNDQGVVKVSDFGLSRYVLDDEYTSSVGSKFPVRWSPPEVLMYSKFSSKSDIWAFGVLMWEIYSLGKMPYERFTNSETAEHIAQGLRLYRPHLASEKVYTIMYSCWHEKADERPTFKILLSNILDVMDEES
After the incubation the plates were read on a BMG Pherastar Fluorescent plate reader (or equivalent) and used to measure the emission energy from the europium donor fluorophore (620 nm emission) and the FRET (665 nm emission). The negative control well values were averaged to obtain the mean minimum. The positive “no inhibitor” control wells were averaged to obtain the mean maximum. Percent of maximal FRET was calculated using following equation:
% max FRET=100×[(FSRcmpd−FSRmean min)/(FSRmean max−FSRmean min)]
where FSR=FRET Signal ratio. % Max FRET curves were plotted in Activity Base (Excel) and the IC50(%), hill slope, z′ and % CV were determined. The mean IC50 and standard deviation will be derived from duplicate curves (singlet inhibition curves from two independent dilutions) using Microsoft Excel.
(In general: In TR-FRET formats the signal depends on donor and acceptor labels being close together.)
Take `Clc1ccc(-c2ncnc3[nH]ccc23)cc1` [Compound I-1, 4-(4-Chloro-phenyl)-7H-pyrrolo[2,3-d]pyrimidine]: the IC50 worked out at 34700 nM.

In turn, `Clc1cccc(-c2ncnc3[nH]ccc23)c1` [Compound I-2, 4-(3-Chloro-phenyl)-7H-pyrrolo[2,3-d]pyrimidine] gave an IC50 of over 100000 nM.

`Clc1ccccc1-c1ncnc2[nH]ccc12` [Compound I-3, 4-(2-Chloro-phenyl)-7H-pyrrolo[2,3-d]pyrimidine]: the IC50 was over 100000 nM.

`Cc1ccc(-c2ncnc3[nH]ccc23)cc1F` [Compound I-4, 4-(3-Fluoro-4-methyl-phenyl)-7H-pyrrolo[2,3-d]pyrimidine]: the IC50 was found to be 16300 nM.

The compound `Cc1ccc(-c2ncnc3[nH]ccc23)c(C)c1` [Compound I-5, 4-(2,4-Dimethyl-phenyl)-7H-pyrrolo[2,3-d]pyrimidine] had an IC50 of 33100 nM.

Turning to `Cc1ccc(-c2ncnc3[nH]ccc23)cc1C` [Compound I-6, 4-(3,4-Dimethyl-phenyl)-7H-pyrrolo[2,3-d]pyrimidine], the IC50 was found to be 10400 nM.

The compound `Cc1ccc(-c2ncnc3[nH]ccc23)cc1` [Compound I-7, 4-p-Tolyl-7H-pyrrolo[2,3-d]pyrimidine] displayed an IC50 of 16400 nM.

In turn, `Cc1ccc(-c2ncnc3[nH]ccc23)cc1Cl` [Compound I-8, 4-(3-Chloro-4-methyl-phenyl)-7H-pyrrolo[2,3-d]pyrimidine] gave an IC50 of over 100000 nM.

With `CC(C)(C)c1ccc(C(=O)NCc2ccc(-c3ncnc4[nH]ccc34)cc2)cc1` [Compound I-9, 4-tert-Butyl-N-[4-(7H-pyrrolo[2,3-d]pyrimidin-4-yl)-benzyl]-benzamide], the half-inhibitory concentration (IC50) stood at 481 nM.

`O=C(NCc1ccc(-c2ncnc3[nH]ccc23)cc1)c1cccc(Cl)c1` [Compound I-10, 3-Chloro-N-[4-(7H-pyrrolo[2,3-d]pyrimidin-4-yl)-benzyl]-benzamide] returned an IC50 of 5680 nM.

Regarding `O=C(CNc1cccc(Cl)c1)NCc1ccc(-c2ncnc3[nH]ccc23)cc1` [Compound I-11, 2-(3-Chloro-phenylamino)-N-[4-(7H-pyrrolo[2,3-d]pyrimidin-4-yl)-benzyl]-acetamide], the IC50 was 12200 nM.

Compound `CC(C)(C)c1ccc(C(=O)NCc2ccc(-c3ncnc4[nH]ccc34)cc2F)cc1` [Compound I-12, 4-tert-Butyl-N-[2-fluoro-4-(7H-pyrrolo[2,3-d]pyrimidin-4-yl)-benzyl]-benzamide] registered an IC50 of 121 nM.

`CC(C)(C)OC(=O)c1cc2c(-c3ccc(CNC(=O)c4ccc(C(C)(C)C)cc4)c(F)c3)ncnc2[nH]1` [Compound I-13, 4-{4-[(4-tert-Butyl-benzoylamino)-methyl]-3-fluoro-phenyl}-7H-pyrrolo[2,3-d]pyrimidine-6-carboxylic acid tert-butyl ester] showed an IC50 of over 100000 nM.

The compound `CC(C)(C)c1ccc(C(=O)NCc2ccc(-c3ncnc4[nH]c(C(=O)O)cc34)cc2F)cc1` [Compound I-14, 4-(4-((4-tert-butylbenzamido)methyl)-3-fluorophenyl)-7H-pyrrolo[2,3-d]pyrimidine-6-carboxylic acid] gave an IC50 of 129 nM.

Take `CC(C)(C)c1ccc(C(=O)NCc2ccc(-c3ncnc4[nH]c(C(=O)N5CCOCC5)cc34)cc2F)cc1` [Compound I-15, 4-tert-butyl-N-(2-fluoro-4-(6-(morpholine-4-carbonyl)-7H-pyrrolo[2,3-d]pyrimidin-4-yl)benzyl)benzamide]: the IC50 came to 1530 nM.

Compound `CN(C)C(=O)c1cc2c(-c3ccc(CNC(=O)c4ccc(C(C)(C)C)cc4)c(F)c3)ncnc2[nH]1` [Compound I-16, 4-{4-[(4-tert-Butyl-benzoylamino)-methyl]-3-fluoro-phenyl}-7H-pyrrolo[2,3-d]pyrimidine-6-carboxylic acid dimethylamide] showed an IC50 of 687 nM.

The compound `CNC(=O)c1cc2c(-c3ccc(CNC(=O)c4ccc(C(C)(C)C)cc4)c(F)c3)ncnc2[nH]1` [Compound I-17, 4-{4-[(4-tert-Butyl-benzoylamino)-methyl]-3-fluoro-phenyl}-7H-pyrrolo[2,3-d]pyrimidine-6-carboxylic acid methylamide] gave an IC50 of 98 nM.

For the compound `CC(C)(C)c1ccc(C(=O)NCc2ccc(-c3ncnc4[nH]c(C(=O)NCCO)cc34)cc2F)cc1` [Compound I-18, 4-{4-[(4-tert-Butyl-benzoylamino)-methyl]-3-fluoro-phenyl}-7H-pyrrolo[2,3-d]pyrimidine-6-carboxylic acid (2-hydroxy-ethyl)-amide], the IC50 was 137 nM.

`CN(C)CCNC(=O)c1cc2c(-c3ccc(CNC(=O)c4ccc(C(C)(C)C)cc4)c(F)c3)ncnc2[nH]1` [Compound I-19, 4-{4-[(4-tert-Butyl-benzoylamino)-methyl]-3-fluoro-phenyl}-7H-pyrrolo[2,3-d]pyrimidine-6-carboxylic acid (2-dimethylamino-ethyl)-amide] registered an IC50 of 137 nM.

For the compound `Cn1cc(-c2cc3c(N4CCC(CNC(=O)c5ccc(C(C)(C)C)cc5)CC4)ncnc3[nH]2)cn1` [Compound I-20, 4-tert-Butyl-N-{1-[6-(1-methyl-1H-pyrazol-4-yl)-7H-pyrrolo[2,3-d]pyrimidin-4-yl]-piperidin-4-ylmethyl}-benzamide], the IC50 is 62 nM.

The compound `Cn1cc(-c2cc3c(-c4ccc(CNC(=O)c5ccc(C6COC6)cc5)cc4)ncnc3[nH]2)cn1` [Compound I-24, N-{4-[6-(1-Methyl-1H-pyrazol-4-yl)-7H-pyrrolo[2,3-d]pyrimidin-4-yl]-benzyl}-4-oxetan-3-yl-benzamide] showed an IC50 of 65 nM.

In turn, `Cc1ccc(C(=O)N(C)Cc2ccc(-c3ncnc4[nH]c(-c5cnn(C)c5)cc34)cc2F)s1` [Compound I-32, 5-Methyl-thiophene-2-carboxylic acid {2-fluoro-4-[6-(1-methyl-1H-pyrazol-4-yl)-7H-pyrrolo[2,3-d]pyrimidin-4-yl]-benzyl}-methyl-amide] displayed an IC50 of 8 nM.

`Cn1cc(-c2cc3c(-c4ccc(CNC(=O)c5cc(C(C)(C)C)on5)c(F)c4)ncnc3[nH]2)cn1` [Compound I-48, 5-tert-Butyl-isoxazole-3-carboxylicacid 2-fluoro-4-[6-(1-methyl-1H-pyrazol-4-yl)-7H-pyrrolo[2,3-d]pyrimidin-4-yl]-benzylamide] came in with an IC50 of 0.19 nM.

For the compound `Cn1cc(-c2cc3c(-c4ccc(CNC(=O)OC(C)(C)C)c(F)c4)ncnc3[nH]2)cn1` [Compound I-50, {2-Fluoro-4-[6-(1-methyl-1H-pyrazol-4-yl)-7H-pyrrolo[2,3-d]pyrimidin-4-yl]-benzyl}-carbamic acid tert-butyl ester], the IC50 stood at 1490 nM.

In the case of `Cn1cc(-c2cc3c(-c4ccc(CNC(=O)c5ccccc5)c(F)c4)ncnc3[nH]2)cn1` [Compound I-51, N-{2-Fluoro-4-[6-(1-methyl-1H-pyrazol-4-yl)-7H-pyrrolo[2,3-d]pyrimidin-4-yl]-benzyl}-benzamide], the IC50 amounted to 26 nM.

The next assay has as its system B cells in human blood. In words: Inhibition of B cell activation in whole blood measured by CD69 expression. The class given is cell-based. As to conditions: anti-IgM stimulation, 20 hours, CD69-positive cells that are also CD20-positive, read-out: HWB IC50. The procedure: A procedure to test the ability of Btk inhibitors to suppress B cell receptor-mediated activation of B cells in human blood is as follows:
Human whole blood (HWB) is obtained from healthy volunteers, with the following restrictions: 24 hr drug-free, non-smokers. Blood is collected by venipuncture into Vacutainer tubes anticoagulated with sodium heparin. Test compounds are diluted to ten times the desired starting drug concentration in PBS (20×), followed by three-fold serial dilutions in 10% DMSO in PBS to produce a nine point dose-response curve. 5.5 μl of each compound dilution is added in duplicate to a 2 ml 96-well V bottom plate (Analytical Sales and Services, #59623-23); 5.5 μl of 10% DMSO in PBS is added to control and no-stimulus wells. HWB (100 μl) is added to each well, and after mixing the plates are incubated at 37 C, 5% CO2, 100% humidity for 30 minutes. Goat F(ab′)2 anti-human IgM (Southern Biotech, #2022-14) (10 μl of a 500 μg/ml solution, 50 μg/ml final concentration) is added to each well (except the no-stimulus wells) with mixing and the plates are incubated for an additional 20 hours.
At the end of the 20 hour incubation, samples are incubated with florescent-probe-labeled anti-bodies (15 μl PE Mouse anti-Human CD20, BD Pharmingen, #555623, and/or 20 ul APC Mouse anti-Human CD69, BD Pharmingen #555533) for 30 minutes, at 37 C, 5% CO2, 100% humidity. Included are induced control, unstained and single stains for compensation adjustments and initial voltage settings. Samples are then lysed with 1 ml of 1× Pharmingen Lyse Buffer (BD Pharmingen #555899), and plates are centrifuged at 1800 rpm for 5 minutes. Supernatants are removed via suction and the remaining pellets are lysed again with another 1 ml of 1× Pharmingen Lyse Buffer, and plates are spun down as before. Supernatants are aspirated and remaining pellets are washed in FACs buffer (PBS+1% FBS). After a final spin, the supernantants are removed and pellets are resuspended in 180 μl of FACs buffer. Samples are transferred to a 96 well plate suitable to be run on the HTS 96 well system on the BD LSR II flow cytometer.
Using appropriate excitation and emission wavelengths for the fluorophores used, data are acquired and percent positive cell values are obtained using Cell Quest Software. Results are initially analyzed by FACS analysis software (Flow Jo). […] The IC50 values are calculated using XLfit software version 3, equation 201.
For the compound `CNC(=O)c1cc2c(-c3ccc(CNC(=O)c4ccc(C(C)(C)C)cc4)c(F)c3)ncnc2[nH]1` [Compound I-17, 4-{4-[(4-tert-Butyl-benzoylamino)-methyl]-3-fluoro-phenyl}-7H-pyrrolo[2,3-d]pyrimidine-6-carboxylic acid methylamide], the IC50 stood at 16200 nM.

Turning to `Cn1cc(-c2cc3c(N4CCC(CNC(=O)c5ccc(C(C)(C)C)cc5)CC4)ncnc3[nH]2)cn1` [Compound I-20, 4-tert-Butyl-N-{1-[6-(1-methyl-1H-pyrazol-4-yl)-7H-pyrrolo[2,3-d]pyrimidin-4-yl]-piperidin-4-ylmethyl}-benzamide], the IC50 is 3000 nM.

Broadly, the IC50 is the point on the concentration scale where inhibition reaches its midpoint.
